These results are taken from patent US20240148757A1, “USE OF DIHYDROOROTATE DEHYDROGENASE (DHODH) INHIBITORS TO TARGET FERROPTOSIS IN CANCER THERAPY” (BOARD OF REGENTS, THE UNIVERSITY OF TEXAS SYSTEM, priority 2021, published 2024).

Each structure is given as a SMILES string.

For one assay, the system named is HT-1080 xenograft tumors. The assay can be described thus: HT-1080 cell line-derived xenograft model. Type of assay: in vivo, athymic nude mice. To be noted: liproxstatin-1 10 mg/kg intraperitoneally daily. The method, then: (§1) Fresh tumor tissues were fixed in 10% neutral buffered formalin overnight, washed once with PBS, and stored in 70% ethanol at 4° C. The tissues were dehydrated and embedded in paraffin by the Research Histology Core Laboratory (MD Anderson Cancer Center) according to standard protocols. Embedded tissues were sectioned at a thickness of 5 μm for H&E or immunohistochemistry (IHC) analysis. IHC analysis was performed as previously described (Gan, B., et al., Cancer Cell 18, 472-484 (2010); Gan, B., et al., J Cell Biol 175, 121-133 (2006)). Briefly, the primary antibodies, including ki-67 (1:500, 9027s, Cell Signaling Technology), cleaved-caspase 3 (1:500, 9661s, Cell Signaling Technology), or 4-HNE (1:400, ab46545, Abcam) were incubated overnight at 4° C. Staining was performed using the Vectastain elite ABC kit and DAB peroxidase substrate kit (Vector laboratories). Images were randomly taken from the […] (five images per tumor) at ×200 magnification using an Olympus BX43 microscope. All the xenograft experiments were performed in accordance with a protocol approved by the Institutional Animal Care and Use Committee and Institutional Review Board at The University of Texas MD Anderson Cancer Center. The study is compliant with all relevant ethical regulations regarding animal research. Female 4- to 6-week-old athymic nude mice (Foxn1^nu/Foxn1^nu) were purchased from the Experimental Radiation Oncology Breeding Core Facility at MD Anderson Cancer Center and housed in the Animal Care Facility at the Department of Veterinary Medicine and Surgery at MD Anderson. Cancer cell lines were suspended and counted in cold phosphate-buffered saline (PBS), and 5×10^6 HT-1080 or 1×10^7 NCI-H226 cells were injected into mice subcutaneously. When the tumor reached 50-100 mm^3, the mice were assigned randomly into different treatment groups. Brequinar or sulfasalazine was dissolved in dimethyl sulfoxide (DMSO) and diluted in PBS. Brequinar was intraperitoneally injected into mice at a dose of 30 mg/kg every three days. Sulfasalazine was intraperitoneally injected daily at a dose of 100 mg/kg. Liproxstatin-1 diluted in PBS was intraperitoneally injected daily at a dose of 10 mg/kg. The daily injection of brequinar, sulfasalazine, or liproxstatin-1 was continued until the endpoint as indicated in the corresponding figures. The tumor volume was measured every 3 days until the endpoint and calculated according to the equation volume=length×width^2×½.

The test system of a further assay is GPX4-knockdown tumors. The assay is described as follows: GPX4-knockdown HT-1080 xenograft model. Type of assay: in vivo, athymic nude mice. Particulars: liproxstatin-1 10 mg/kg intraperitoneally daily. As to the method: as §1
In assay [1] the test system is DHODH KO HT-1080 cells. The assay is described as follows: Mitochondrial lipid peroxidation (mito-BODIPY) in DHODH KO HT-1080 cells. Type of assay: cell-based, human. To be noted: pretreatment 10 μM, 24 hours.
The test system of another assay is GPX4^low NCI-H226 cells. The assay can be described thus: Cell viability / cell death (ferroptosis) in NCI-H226 cells. Type of assay: cell-based, human. To be noted: BQR; pretreatment Lip-1 or ZVF 10 μM, 24 hours. As to the method:
(§2) Viable cells were measured using Cell Counting Kit-8 (CCK-8, Dojindo) as previously described (Koppula, P., Zhang, Y., Shi, J., Li, W. & Gan, B, J Biol Chem 292, 14240-14249 (2017); Liu, X. & Gan, B, Cell Cycle 15, 3471-3481 (2016)). Briefly, cells were seeded onto 96-well plates at a density of 2×10^4 per well. The next day, cells were treated with GPX4 or DHODH inhibitors for 4 hours. Subsequently, cells exposed to 10 μl CCK-8 reagent (100 μl medium per well) for 1 hour at 37° C., 5% CO2 in an incubator. The absorbance at a wavelength of 450 nm was determined using a FLUOstar Omega microplate reader (BMG Labtech).
(§3) Cell death was measured by propidium iodide (Roche) staining using a flow cytometer, as previously described (Dai, F., et al., Proc Natl Acad Sci USA 114, 3192-3197 (2017); Zhang, Y., et al., Cancer Res 80, 2243-2256 (2020)). For propidium iodide-staining, cells were seeded at a density of 50% confluence into 12-well plates. The next day, cells were treated with different reagents. To measure cell death, the cells were collected (including floating dead cells), stained with 5 μg/ml propidium iodide and the percentage of the propidium iodide-positive dead cell population was analyzed using the flow cytometer BD Accuri C6 (BD Biosciences) and an FL2 detector. A minimum of 10,000 single cells were analyzed per well and all experiments were carried out at least in triplicate.

Assay [2] deals with DHODH KO HT-1080 cells. The assay can be described thus: Cell viability / cell death (ferroptosis) in DHODH KO HT-1080 cells. Particulars: DHODH KO; pretreatment 10 μM, 24 hours. Type of assay: cell-based, human. The method, then:
Knockout of DHODH, ACSL4 and COQ2 in human cell lines was performed using single guide RNAs (sgRNAs) and doxycycline (DOX)-inducible CRISPR-Cas9 expression system as described in our recent publication (Lee, H., et al., Nature cell biology 22, 225-234 (2020)). sgRNAs were cloned into the lentiviral lentiGuide vector. LentiGuide clones were transfected into HEK293T cells with psPAX2 packaging plasmid and pMD2.G expressing plasmid. Cells were infected with lentivirus with 0.8 μg/ml polybrene, selected with puromycin (1 μg/ml, InvivoGen), blasticidin (2 μg/ml, InvivoGen) or hygromycin B (2 μg/ml, InvivoGen) for 3 days and then single cells were sorted into 96-well plates. Single cells were maintained in DMEM with 10% (v/v) FBS and 1% (v/v) penicillin/streptomycin at 37° C. in an incubator with 20% O2 and 5% CO2 for 3-4 weeks and each colony was verified by western blot to confirm the target gene deletion. To generate cell lines with DOX-inducible CRISPR-Cas9-mediated gene deletion, cells were infected with lentivirus, selected with puromycin (1 μg/ml, InvivoGen), blasticidin (2 μg/ml, InvivoGen) or hygromycin B (2 μg/ml, InvivoGen) for 2 days and then single cells were sorted into 96-well plates. Once cell lines were established, 1 μg/ml of DOX (Sigma-Aldrich) was added to the media to induce target gene deletion for 48 hours after selection; then cells were cultured in DOX-free media for subsequent analyses.
as §2, §3

Regarding `Clc1cccc(CN=C2Nc3ccccc3NC23CCNCC3)c1` [liproxstatin-1], in the assay on HT-1080 xenograft tumors, the “restoration of tumor growth suppressed by brequinar and sulfasalazine” value was “largely restored”. In addition, the “restoration of tumor growth under brequinar treatment” value with GPX4-knockdown tumors is reported as “largely restored the growth”. Moreover, the “suppression of GPX4 inhibitor-induced mitochondrial lipid peroxidation” value in the assay with DHODH KO HT-1080 cells [1] is “could be suppressed”. Further, the “rescue of DHODH inhibition-induced cell death” value with GPX4^low NCI-H226 cells was “largely rescued”. For the same compound, in the assay with DHODH KO HT-1080 cells [2], the “protection against GPX4 inhibition (RSL3 or ML162)-induced ferroptosis” value is given as “rescued”.
